Test results published in US20230113262A1, “Peptide for cancer immunotherapy rupturing tumor-derived vesicle and use thereof” (RESEARCH & BUSINESS FOUNDATION SUNGKYUNKWAN UNIVERSITY, priority 2021, published 2023).

Tests used:
[1] = system: fibroblast cell line NIH3T3; experiment: Cytotoxicity assay (MTT) in NIH3T3; format: cell-based, mouse; conditions: NIH3T3 cells
Protocol: (§1) First, 10^4 cells of each cell line were seeded in a 96-well plate, and cultured for 24 hours. After culturing for 4 hours in a serum-free culture medium, the peptides at each concentration were injected into the wells and further incubated for 4 hours. After discarding a supernatant, 0.5 mg/ml of MTT-containing medium was treated and then left for 2 hours, formazan crystals in the cells were dissolved in each well using dimethyl sulfoxide. Then, cytotoxicity was analyzed by measuring absorbance at 570 nm using a microplate reader.

[2] = system: melanoma cell line B16F10; experiment: Cytotoxicity assay (MTT) in B16F10; format: cell-based, mouse; conditions: B16F10 cells
Protocol: as §1

[3] = target: T1, PD-L1 on tumor-derived exosomes (T-EXO) isolated from the plasma of B16F10 melanoma tumor-bearing mice (mouse, UniProt Q9EP73 19-290); experiment: ELISA: T-EXO captured on PD-L1 antibody-coated plate, biotin-labeled murine PD-1 (4 ug/ml) detected with streptavidin-HRP, OD 450 nm
T1 construct: whole, on cells; also called PD-L1^EXO; exosomal PD-L1
T1 sequence (Q9EP73 19-290, one chain of several): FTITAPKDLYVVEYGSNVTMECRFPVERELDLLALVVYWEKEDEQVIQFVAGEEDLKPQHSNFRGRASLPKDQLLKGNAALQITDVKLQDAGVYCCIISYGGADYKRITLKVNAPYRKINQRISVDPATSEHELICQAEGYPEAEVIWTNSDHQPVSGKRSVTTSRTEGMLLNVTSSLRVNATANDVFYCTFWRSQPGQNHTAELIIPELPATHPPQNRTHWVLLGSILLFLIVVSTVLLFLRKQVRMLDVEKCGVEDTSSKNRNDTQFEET
Protocol: After treating the plate for 2 hours, the plate was washed with PBS-T (PBS containing 0.05% Tween-20). […] Wells were washed with PBS-T three times, and treated with horseradish peroxidase-conjugated streptavidin (100 μl per well; R&D Systems) diluted in 0.5% BSA-containing PBS for 30 minutes. After washing with PBS-T, the plate was treated with tetramethylbenzidine (R&D Systems) and the reaction was stopped by adding 0.5 N H₂SO₄.

Molecule	cytotoxicity [1]	cytotoxicity ([1]; listed as AH peptide)	cytotoxicity [2]	cytotoxicity ([2]; listed as AH peptide)	binding result [3]
CC[C@@H](C)[C@@H](NC(=O)[C@@H](Cc1c[nH]c2ccccc12)NC(=O)[C@@H](CC(=O)O)NC(=O)[C@@H](Cc1c[nH]c2ccccc12)NC(=O)[C@H](NC(=O)[C@@H](CC(=O)O)NC(=O)[C@@H](CCCNC(=N)N)NC(=O)[C@@H](CC(C)C)NC(=O)[C@@H](Cc1c[nH]c2ccccc12)NC(=O)[C@@H](CO)NC(=O)CNC(=O)[C@H](N)CO)C(C)C)C(=O)N[C@H](CS)C(=O)N[C@@H](C(=O)N[C@@H](C(=O)N[C@H](CC(C)C)C(=O)N[C@@H](C(=O)N[C@H](CC(=O)O)C(=O)N[C@H](Cc1ccccc1)C(=O)N[C@H](CCCCN)C(=O)N[C@@H](C(=O)N[C@H](Cc1c[nH]c2ccccc12)C(=O)N[C@H](CC(C)C)C(=O)N[C@H](CCC(N)=O)C(=O)N[C@H](CO)C(=O)N[C@H](CCCCN)C(=O)N[C@H](CC(C)C)C(N)=O)[C@H](C)O)[C@H](C)O)C(C)C)[C@H](C)O [AH-D peptide]	neither the AH-D peptide nor the NH-D peptide has cytotoxicity	did not exhibit cytotoxicity	neither the AH-D peptide nor the NH-D peptide has cytotoxicity	did not exhibit cytotoxicity	–
CC(C)C[C@@H](NC(=O)[C@@H](CCCCN)NC(=O)[C@@H](CO)NC(=O)[C@@H](CCC(N)=O)NC(=O)[C@@H](CC(C)C)NC(=O)[C@@H](Cc1c[nH]c2ccccc12)NC(=O)[C@H](NC(=O)[C@@H](CCCCN)NC(=O)[C@@H](CC(=O)O)NC(=O)[C@@H](CC(=O)O)NC(=O)[C@H](NC(=O)[C@@H](CC(C)C)NC(=O)[C@H](NC(=O)[C@H](NC(=O)[C@@H](CS)NC(=O)[C@@H](CCC(=O)O)NC(=O)[C@@H](Cc1c[nH]c2ccccc12)NC(=O)[C@@H](CC(=O)O)NC(=O)[C@@H](Cc1c[nH]c2ccccc12)NC(=O)[C@@H](CC(=O)O)NC(=O)[C@@H](CC(=O)O)NC(=O)[C@@H](CCCNC(=N)N)NC(=O)[C@@H](CC(C)C)NC(=O)[C@@H](Cc1c[nH]c2ccccc12)NC(=O)[C@@H](CO)NC(=O)CNC(=O)[C@H](N)CO)[C@H](C)O)C(C)C)[C@H](C)O)[C@H](C)O)C(N)=O [NH-D peptide, reference compound]	neither the AH-D peptide nor the NH-D peptide has cytotoxicity	–	neither the AH-D peptide nor the NH-D peptide has cytotoxicity	–	–
biotin-labeled murine PD-1 protein (cat no. 71118, BPS Bioscience) (receptor, UniProt Q02242 25-167, looked up, also called biotin-labeled PD-1 protein) LEVPNGPWRSLTFYPAWLTVSEGANATFTCSLSNWSEDLMLNWNRLSPSNQTEKQAAFCNGLSQPVQDARFQIIQLPNRHDFHMNILDTRRNDSGIYLCGAISLHPKAKIEESPGAELVVTERILETSTRYPSPSPKPEGRFQ	–	–	–	–	binds
